Laboratory results as given in patent publication US6358883B1, “Pesticidal and parasiticidal use of 1-aryl-1-(substituted thio, sulfinyl and sulfonyl)-2-nitroethane compounds” (American Cyanamid Company, priority 1998, dated 2002).

How the values were obtained:
Type in all cases: in vivo
[1] = system: C. elegans (Bristol strain); experiment: Evaluation of test compounds against C. elegans (motility, 96-well plate); set-up: key: 9=complete kill in 4 hours; 8=complete kill in 24 hours; 7=markedly reduced motility in approximately 95% of worms in 24 hours; 0=normal motility, same as controls; conditions: motility at 4 and 24 hours
How it was run: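 Activity is a semi-quantitative visual score of adult and larval movement, read at 4 h and 24 h post-immersion at 20 °C after gentle tapping. Worms were suspended in Na buffer in wells where compound, dissolved in 80% acetone, had been evaporated.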

[2] = system: Spodoptera eridania, eggs-southern armyworm (SAW-Eggs); experiment: Southern armyworm eggs (SAW-Eggs) treated diet test; set-up: key: 0 = no effect; 1 = 10-25% kill; 2 = 26-35% kill; 3 = 36-45% kill; 4 = 46-55% kill; 5 = 56-65% kill; 6 = 66-75% kill; 7 = 76-85% kill; 8 = 86-99% kill; 9 = 100% kill; conditions: mortality after 7 days
Experimental: Test solutions are prepared by dissolving the test compound in a 35% acetone in water mixture to give a concentration of 10,000 ppm. Subsequent dilutions are made with water as needed. Spodoptera eridania, Eggs-southern Armyworm and Diabrotica undecimpunctata howardi, Eggs-southern Corn Rootworm (SAW-Eggs) and (SCR-Eggs) Wells containing artificial diet are treated with the test solutions and dried. The appropriate insect eggs are then placed in the wells. The wells are covered with vented, adhesive, clear plastic covers. After 7 days, mortality counts are made. [table]

[3] = system: Diabrotica undecimpunctata howardi, eggs-southern corn rootworm (SCR-Eggs); experiment: Southern corn rootworm eggs (SCR-Eggs) treated diet test; set-up: key: 0 = no effect; 1 = 10-25% kill; 2 = 26-35% kill; 3 = 36-45% kill; 4 = 46-55% kill; 5 = 56-65% kill; 6 = 66-75% kill; 7 = 76-85% kill; 8 = 86-99% kill; 9 = 100% kill; conditions: mortality after 7 days
How it was run: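 Eggs of S. eridania or D. undecimpunctata howardi were set on artificial diet pretreated with test solution (10,000 ppm stock in 35% aqueous acetone, water dilutions) and dried. Wells were sealed with vented clear covers, and mortality was scored at day 7.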

[4] = system: Spodoptera eridania, 2nd instar larvae, southern armyworm (SAW); experiment: Southern armyworm (SAW) leaf dip test; set-up: key: 0 = no effect; 1 = 10-25% kill; 2 = 26-35% kill; 3 = 36-45% kill; 4 = 46-55% kill; 5 = 56-65% kill; 6 = 66-75% kill; 7 = 76-85% kill; 8 = 86-99% kill; 9 = 100% kill
How it was run: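 Ten 2nd instar caterpillars feed on a Sieva lima bean leaf that was dipped 3 seconds in test solution (stock 10,000 ppm in 35% acetone/water, water-diluted). Five days later, larvae are assessed for death, feeding reduction or abnormal molting.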

[5] = system: Diabrotica virgifera virgifera Leconte, 2nd instar western corn rootworm (WCR); experiment: Western corn rootworm (WCR) soil test; set-up: key: 0 = no effect; 1 = 10-25% kill; 2 = 26-35% kill; 3 = 36-45% kill; 4 = 46-55% kill; 5 = 56-65% kill; 6 = 66-75% kill; 7 = 76-85% kill; 8 = 86-99% kill; 9 = 100% kill
How it was run: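 Ten 2nd-instar rootworm larvae are placed in jars of moist soil with millet seed and talc treated with 1.25 mg active ingredient (roughly 50 kg/ha) from a 35% acetone-in-water solution. After 5 days mortality is scored, counting missing larvae as dead.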

[6] = system: Tetranychus urticae (OP-resistant strain), 2-spotted spider mite (TSM); experiment: 2-spotted spider mite (TSM) plant dip test; set-up: key: 0 = no effect; 1 = 10-25% kill; 2 = 26-35% kill; 3 = 36-45% kill; 4 = 46-55% kill; 5 = 56-65% kill; 6 = 66-75% kill; 7 = 76-85% kill; 8 = 86-99% kill; 9 = 100% kill; conditions: mortality after 2 days
How it was run: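 Mortality counted 2 days after a 3 s agitated dip of infested Sieva lima bean plants. Compound came from a 10,000 ppm stock in 35% aqueous acetone, with further dilution in water. Each primary leaf carried about 100 OP-resistant mites, allowed to settle ~2 h before dipping.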

[7] = system: Aphis gossypii, cotton aphid (CA); experiment: Cotton aphid (CA) cotyledon dip test; set-up: key: 0 = no effect; 1 = 10-25% kill; 2 = 26-35% kill; 3 = 36-45% kill; 4 = 46-55% kill; 5 = 56-65% kill; 6 = 66-75% kill; 7 = 76-85% kill; 8 = 86-99% kill; 9 = 100% kill; conditions: mortality after 5 days
How it was run: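 Mortality was scored 5 days after dipping aphid-infested cotyledons, colonised overnight from a transfer leaf, into water dilutions of a 35% acetone/water compound solution.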

[8] = system: M. incognita (Root Knot Nematode) larvae; experiment: Evaluation of test compounds against M. incognita larvae in microtiter plate wells (movement score); conditions: larvae scored for movement after 20-24 hours; further: key: A score of '9' indicates inactive worms with a straight, sticklike morphology; A score of '8' indicates inactive worms with a limp, curled or curved morphology; A score of '7' indicates dead/paralyzed worms after 72 hours
How it was run: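 Scoring is by larval movement: dead or paralyzed worms count as positive, and a "7" means dead/paralyzed at 72 hours. Freshly hatched root-knot larvae (50-65 per well) in buffered S Medium were incubated with compounds under plate sealers for 20-24 h before the first read.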

SMILES	Rating Against C. elegans (150 ppm) [1]	SAW Eggs (300 ppm) rating [2]	SCR Eggs (1000 ppm) rating [3]	SAW (300 ppm) rating [4]	WCR (50 ppm) rating [5]	TSM (300 ppm) rating [6]	CA (300 ppm) rating [7]	M. incognita (150 ppm) score [8]
C=CCSC(C[N+](=O)[O-])c1cc(OC)cc(OC)c1 (stereo not shown) [Example 3]	0	0	0					
O=C(O)CSC(C[N+](=O)[O-])c1c(F)c(F)c(F)c(F)c1F (stereo not shown) [Example 139]	9	0	0	0	9 (9 = 100% kill)	0	0	
COC(=O)CSC(C[N+](=O)[O-])c1c(F)c(F)c(F)c(F)c1F (stereo not shown) [Example 140]	8	0	0	6 (6 = 66-75% kill)	9 (9 = 100% kill)	0	0	
COC(=O)CSc1c(F)c(F)c(C(C[N+](=O)[O-])SCC(=O)OC)c(F)c1F (stereo not shown) [Example 141]	8	0	0	0	0	0	0	
CCOC(=O)CSC(C[N+](=O)[O-])c1c(F)c(F)c(F)c(F)c1F (stereo not shown) [Example 142]	8	0	0	0	9 (9 = 100% kill)	0	4 (4 = 46-55% kill)	
CCOC(=O)CSc1c(F)c(F)c(C(C[N+](=O)[O-])SCC(=O)OCC)c(F)c1F (stereo not shown) [Example 143]	0	0	0	0	0	0	0	
CCCOC(=O)CSC(C[N+](=O)[O-])c1c(F)c(F)c(F)c(F)c1F (stereo not shown) [Example 144]	7	0	0	0	9 (9 = 100% kill)	0	0	
C=CCSC(C[N+](=O)[O-])c1cccs1 (stereo not shown) [Example 187]		0	0	0	0	0	0	9
O=[N+]([O-])CC(SCc1ccccc1)c1cccs1 (stereo not shown) [Example 188]		0	0	0	3 (3 = 36-45% kill)	0	0	9
CCCOC(=O)CSC(C[N+](=O)[O-])c1cccs1 (stereo not shown) [Example 189]		0	0	0	0	0	0	9
O=C(O)CSC(C[N+](=O)[O-])c1ccco1 (stereo not shown) [Example 196]		0	0	0	9 (9 = 100% kill)	0	0	9
COC(=O)CSC(C[N+](=O)[O-])c1ccco1 (stereo not shown) [Example 197]		9 (9 = 100% kill)	0	0	0	0	5 (5 = 56-65% kill)	9
CCOC(=O)CSC(C[N+](=O)[O-])c1ccco1 (stereo not shown) [Example 198]		9 (9 = 100% kill)	0	0	7 (7 = 76-85% kill)	0	0	9
CCCOC(=O)CSC(C[N+](=O)[O-])c1ccco1 (stereo not shown) [Example 199]		9 (9 = 100% kill)	0	0	8 (8 = 86-99% kill)	0	0	9
CCCCOC(=O)CSC(C[N+](=O)[O-])c1ccco1 (stereo not shown) [Example 200]		9 (9 = 100% kill)	0	0	4 (4 = 46-55% kill)	0	0	9
CCCSC(C[N+](=O)[O-])c1ccco1 (stereo not shown) [Example 201]		0	0	0	7 (7 = 76-85% kill)	0	0	0
C=CCSC(C[N+](=O)[O-])c1ccco1 (stereo not shown) [Example 202]		9 (9 = 100% kill)	0	0	9 (9 = 100% kill)	0	0	0
